Converted amounts (≈) assume the structure as drawn. “And” between values parts separate entries of the source, which are not always exact repeats. Equal values may be shown once.
Experiments:
[1] = test system: E. coli (Carbapenem Resistant); assay: Broth microdilution MIC against UTI pathogens (Example 4); format: cell-based; conditions: Escherichia coli; 25 isolates
Description: (§1) Antimicrobial activities of Compound 1 against a variety of common pathogens found in UTI were determined using a standard broth microdilution method (CLSI in Methods for Dilution Antimicrobial Susceptibility Tests for Bacteria That Grow Aerobically, Approved Standard M7-A8, Clinical and Laboratory Standards Institute, Wayne, Pa. (USA), 2011, incorporated herein by reference) with slight modifications.

[2] = test system: E. coli (non-ESBL phenotype); assay: as above; format: cell-based; conditions: Escherichia coli; 10,696 isolates
Description: as §1

[3] = test system: E. coli (ESBL phenotype); assay: as above; format: cell-based; conditions: Escherichia coli; 2,743 isolates
Description: as §1

[4] = test system: S. marcescens; assay: In vitro MIC, 2010 surveillance isolates; format: cell-based; conditions: N=424
[5] = test system: Ind+ Proteus spp; assay: In vitro MIC, 2010 surveillance isolates; format: cell-based; conditions: N=258
[6] = In vitro activity at pH 6.0 in media; format: cell-based
[7] = In vitro plasma protein binding (ultrafiltration), mouse plasma; format: in vitro ADME, mouse (CD-1); conditions: CD-1, 10-10,000 ng/mL, mean±SD, read-out: mean unbound protein fraction (fu) in plasma
Description: (§2) For human binding studies, plasma was obtained from the blood of three healthy male volunteers. Plasma was defrosted from storage at -20° C. before use, and pools of human plasma were used for all studies. Plasma from mouse, rat, and monkey was supplied by Harlan Laboratories Ltd. (Netherlands), Milan […], Switzerland) and Centre de Primatologie ULP (France), respectively. Protein binding was measured using an ultrafiltration method. To asses the suitability of ultrafiltration, the recovery and free permeation of [^14C]-labelled Compound 1 in PBS buffer were investigated. […] Three 1 mL aliquots per concentration were introduced into […]® devices and spun for 1 min at 2000 g (filtrate ≤500 μL). Samples of the spiked solutions, the filtrate and retentate were quantified by LSC; volumes were determined by weighing. The free permeation of the test compound in PBS was evaluated as follows: Ratio=[Cuf/Cr] with Cuf being the concentration in the ultrafiltrate (ng/mL) and Cr the concentration in the retentate (ng/mL). […] Specifically, concentrations of Compound 1 was determined by an UPLC-MS/MS method. […] Standards and quality control samples were prepared on the day of analysis by adding a 20 μL aliquot of an appropriate standard or QC spiking solution in methanol. A 25 μL aliquot of the internal standard (at 200 ng/mL in methanol) was added to each well except blanks. […] Samples were processed using protein precipitation. A 0.5 mL aliquot of an acetonitrile/ethanol/acetic acid mixture (90:10:0.1, v:v:v) was added to each sample; samples were mixed using a vortex mixer for 10 minutes, and centrifuged 3800 rpm (approximately 2500×g) for 10 min at 10° C. […] The ions monitored for Compound 1 was the parent [M+H]^+ ion at m/z 557.3.0; the product ions at m/z 453.4. […] The quantification was performed using Analyst software and Watson LIMS version 7.2.0.01. Concentrations in QC and study samples were calculated from the resulting peak area ratios and interpolation from the regression equations of the respective calibration curves. The lower limit of quantitation was 5.0 ng/mL for Compound 1.

[8] = test system: plasma proteins; assay: as above; format: in vitro ADME, mouse (CD-1); conditions: 10-10,000 ng/mL
Description: as §2

[9] = test system: E. coli (ATCC 25922); assay: Broth microdilution MIC against planktonic E. coli; format: cell-based; conditions: Escherichia coli, ATCC25922, extrapolated from OD650 plot after 24 hours, read-out: minimum inhibitory concentration (MIC)
Description: as §1, with “activity” for “activities”, “E. coli (ATCC 25922) was” for “a variety of common pathogens found in UTI were”

[10] = In vitro plasma protein binding (ultrafiltration), human plasma; format: in vitro ADME; conditions: male; human plasma; 10-10,000 ng/mL; mean±SD; read-out: mean unbound protein fraction (fu) in plasma
Description: (§3) For human binding studies, plasma was obtained from the blood of three healthy male volunteers. Plasma was defrosted from storage at -20° C. before use, and pools of human plasma were used for all studies. Plasma from mouse, rat, and monkey was supplied by Harlan Laboratories Ltd. (Netherlands), Milan […], Switzerland) and Centre de Primatologie ULP (France), respectively. Protein binding was measured using an ultrafiltration method. To asses the suitability of ultrafiltration, the recovery and free permeation of [^14C]-labelled Compound 1 in PBS buffer were investigated. […] Three 1 mL aliquots per concentration were introduced into […]® devices and spun for 1 min at 2000 g (filtrate ≤500 μL). Samples of the spiked solutions, the filtrate and retentate were quantified by LSC; volumes were determined by weighing. The free permeation of the test compound in PBS was evaluated as follows: Ratio=[Cuf/Cr] with Cuf being the concentration in the ultrafiltrate (ng/mL) and Cr the concentration in the retentate (ng/mL). […] Specifically, concentrations of Compound 1 was determined by an UPLC-MS/MS method. […] Standards and quality control samples were prepared on the day of analysis by adding a 20 μL aliquot of an appropriate standard or QC spiking solution in methanol. A 25 μL aliquot of the internal standard (at 200 ng/mL in methanol) was added to each well except blanks. […] Samples were processed using protein precipitation. A 0.5 mL aliquot of an acetonitrile/ethanol/acetic acid mixture (90:10:0.1, v:v:v) was added to each sample; samples were mixed using a vortex mixer for 10 minutes, and centrifuged 3800 rpm (approximately 2500×g) for 10 min at 10° C. A 500 μL aliquot of the supernatant transferred to a clean 96 well plate, 2 ml. An aliquot 500 μL of 80:20 (water:acetonitrile) was added to all the samples. Samples were mixed by vortexing for 0.5 min. A 6 μL sample volume was injected into the UPLC/MS/MS system for analysis. Samples were then assayed on an UPLC-MS/MS system, consisting of an Acquity UPLC with a quaternary pump, a ample manager, and sample organizer, coupled to a Sciex API4000 mass spectrometer running Analyst software version 1.4.2 (Foster City, Calif., USA). The mass spectrometer was operated in the positive ion mode, using electro spray ionization, with a source temperature of 500° C. Chromatographic separation was carried out on an Acquity BEH C18, 50×2.1, 1.7 particle (Waters, Mass.) at a flow rate of 1.0 mL/min. The column temperature was maintained at 65° C. […] The ions monitored for Compound 1 was the parent [M+H]^+ ion at m/z 557.3.0; the product ions at m/z 453.4. Data processing: Calibration curves (y=x^2+xb+c or y=ax+b), represented by the plots of the respective peak area ratios (y) of the analyte […] versus the concentrations (x) of the calibration samples, were generated using weighted (1/x^2 or 1/x) quadratic least-squares regression as the mathematical model. The quantification was performed using Analyst software and Watson LIMS version 7.2.0.01. Concentrations in QC and study samples were calculated from the resulting peak area ratios and interpolation from the regression equations of the respective calibration curves. The lower limit of quantitation was 5.0 ng/mL for Compound 1.

[11] = test system: plasma proteins; assay: as above; format: in vitro ADME
Description: as §3

[12] = test system: S. saprophyticus; assay: In vitro activity in urine relative to standard media; format: cell-based

Question: For `CN(C)c1cc(CNCC(C)(C)C)c(O)c2c1C[C@H]1C[C@H]3[C@H](N(C)C)C(O)=C(C(N)=O)C(=O)[C@@]3(O)C(O)=C1C2=O` [Compound 1, 9-[(2,2-dimethyl-propylamino)-methyl]-minocycline], which MIC50 [1] is on record?
Answer: 1 µg/mL (≈ 1.8 µM)

Question: And the MIC90 [1]?
Answer: 4 µg/mL (≈ 7.19 µM)

Question: What about the MIC50 [2] of the same compound?
Answer: 0.5 µg/mL (≈ 0.898 µM)

Question: What about the MIC90 [2] of the same compound?
Answer: 2 µg/mL (≈ 3.59 µM)

Question: And the MIC50 [3]?
Answer: 1 µg/mL (≈ 1.8 µM)

Question: And the MIC90 [3]?
Answer: 4 µg/mL (≈ 7.19 µM)

Question: And the “Cumulative % Inhibition at MIC” value ([4]; MIC 1 μg/ml)?
Answer: 0.7%

Question: And the “Cumulative % Inhibition at MIC” value ([4]; MIC 2 μg/ml)?
Answer: 20.3%

Question: What about the “Cumulative % Inhibition at MIC” value ([4]; MIC 4 μg/ml) of the same compound?
Answer: 76.2%

Question: And the “Cumulative % Inhibition at MIC” value ([4]; MIC 8 μg/ml)?
Answer: 91.0%

Question: And the “Cumulative % Inhibition at MIC” value ([4]; MIC 16 μg/ml)?
Answer: 93.6%

Question: And the “Cumulative % Inhibition at MIC” value ([4]; MIC ≤0.5 μg/ml, listed as head image P00017)?
Answer: 0%

Question: What about the “Cumulative % Inhibition at MIC” value ([4]; MIC ≥32 μg/ml) of the same compound?
Answer: 100%

Question: And the “Cumulative % Inhibition at MIC” value ([5]; MIC 1 μg/ml)?
Answer: 0.8%

Question: And the “Cumulative % Inhibition at MIC” value ([5]; MIC 2 μg/ml)?
Answer: 3.1%

Question: And the “Cumulative % Inhibition at MIC” value ([5]; MIC 4 μg/ml)?
Answer: 26.0%

Question: What about the “Cumulative % Inhibition at MIC” value ([5]; MIC 8 μg/ml) of the same compound?
Answer: 58.1%

Question: What about the “Cumulative % Inhibition at MIC” value ([5]; MIC 16 μg/ml) of the same compound?
Answer: 73.3%

Question: And the “Cumulative % Inhibition at MIC” value ([5]; MIC ≤0.5 μg/ml)?
Answer: 0%

Question: And the “Cumulative % Inhibition at MIC” value ([5]; MIC ≥32 μg/ml)?
Answer: 100%

Question: What about the “in vitro activity at pH 6.0 in media” value [6] of the same compound?
Answer: somewhat decreased

Question: And the fraction unbound [7]?
Answer: 0.847 ± 0.0531

Question: And the “Mean (SD) Bound Fraction” value [8]?
Answer: 15.3 (5.31) %

Question: What about the “mean unbound protein fraction (fu) in plasma” value ([8]; mean±SD) of the same compound?
Answer: 84.7±5.3%

Question: And the MIC [9]?
Answer: 1.13 µg/mL (≈ 2.03 µM)

Question: And the fraction unbound [10]?
Answer: 0.787 ± 0.0972

Question: And the “Mean (SD) Bound Fraction” value ([11]; human plasma, 10-10,000 ng/mL)?
Answer: 21% and 21.3 (9.72) %

Question: What about the “concentration dependency of plasma protein binding” value ([11]; human plasma, 10-10,000 ng/mL) of the same compound?
Answer: not concentration dependent

Question: What about the “mean unbound protein fraction (fu) in plasma” value ([11]; human plasma, 10-10,000 ng/mL, mean±SD) of the same compound?
Answer: 78.7±9.7%

Question: And the fraction unbound at 100 ng/mL ([11]; male, human, plasma, Concentration 100 ng/mL)?
Answer: 0.656

Question: And the fraction unbound at 1000 ng/mL ([11]; male, human, plasma, Concentration 1,000 ng/mL)?
Answer: 0.878

Question: What about the fraction unbound at 10000 ng/mL ([11]; male, human, plasma, Concentration 10,000 ng/mL) of the same compound?
Answer: 0.798

Question: What about the fraction unbound ([11]; male, human, plasma, Mean over concentrations) of the same compound?
Answer: 0.787

Question: What about the “activity in urine relative to standard media” value [12] of the same compound?
Answer: stable

From patent US10238670B2, “9-aminomethyl minocycline compounds and methods of use thereof in urinary tract infection (UTI) treatment” (Paratek Pharmaceuticals, Inc., priority 2016, dated 2019)
